{
  "source": "paper PMC8422859",
  "about": "“A Novel Oral Arginase 1/2 Inhibitor Enhances the Antitumor Effect of PD-1 Inhibition in Murine Experimental Gliomas by Altering the Immunosuppressive Environment” (Frontiers in Oncology, 2021)",
  "key": {"[1]": {"test_system": "L-arginine (substrate of arginase)", "assay": "L-arginine concentration in brain and plasma by LC-MS", "type": "in vivo, mouse", "details": "GL261-bearing mice, 50 mg/kg oral twice a day, day 14, 2 h after last dose", "procedure": "Blood plasma, as well as the brain samples (from control and treated animals), were prepared for liquid chromatography coupled with mass spectrometry (LC-MS) by homogenization in 5% trichloroacetic acid (TCA) and the concentration of L-arginine – the substrate of arginase – was determined. In the urea cycle, arginase cleaves arginine to produce urea and ornithine. Ornithine reacts with carbamoyl phosphate to form citrulline. The brain homogenates prepared for arginine measurements, as well as plasma samples were also analyzed by LC-MS to determine the concentration of the drug, which was administered to animals 2 h before the euthanasia."}, "recombinant human ARG2": {"biological_target": "T1, recombinant human ARG2 (Homo sapiens, UniProt P78540)", "T1 construct": "made in house; host or cells: E. coli", "T1 sequence (P78540 23-354)": "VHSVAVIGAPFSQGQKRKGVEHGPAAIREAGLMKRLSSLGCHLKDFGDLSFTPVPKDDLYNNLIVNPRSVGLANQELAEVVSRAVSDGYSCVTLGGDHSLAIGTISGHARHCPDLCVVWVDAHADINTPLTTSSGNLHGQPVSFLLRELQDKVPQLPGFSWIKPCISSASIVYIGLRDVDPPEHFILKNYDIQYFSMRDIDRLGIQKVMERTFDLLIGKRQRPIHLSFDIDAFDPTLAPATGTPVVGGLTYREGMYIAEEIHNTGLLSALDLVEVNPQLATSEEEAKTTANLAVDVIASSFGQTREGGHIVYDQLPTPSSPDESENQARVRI", "assay": "Recombinant arginase activity assay, hARG2", "type": "biochemical", "details": "1 h at 37°C, pH 7.4, 10 mM L-arginine, urea detection; read-out: Inhibition of recombinant hARG2: IC50", "procedure": "The inhibitory activity towards hARG1 and hARG2 enzymes was assessed using recombinant enzymes biosynthesized using a prokaryotic expression system (E. coli) and purified by fast protein liquid chromatography (FPLC). Briefly, recombinant enzymes were incubated with the tested compounds for 1 h at 37°C in the reaction buffer (100 mM sodium phosphate buffer, 130 mM NaCl, 1 mg/mL BSA, pH 7.4) containing substrate (10 mM L-arginine hydrochloride) and cofactor (200 µM MnCl2). The assay is based on the detection of urea, which is generated during the conversion of L-arginine into L-ornithine catalyzed by arginases. To visualize the product, we adding a mixture of reagent A (4 mM oPA, 50 mM boric acid, 1 M sulfuric acid, 0.03% Brij-35) and reagent B (4 mM NED, 50 mM boric acid, 1 M sulfuric acid, 0.03% Brij-35) in equal proportions. The absorbance was measured at 515 nm. The urea production in the absence of any tested compound was considered as maximal enzyme activity. The absorbance in the absence of arginase (background) was considered as zero activity. Two reference compounds OAT-81 (ABH, no. 222638-65-5) and OAT-90 (2-amino-6-borono-2-(2-(3-(2,4-dichlorophenyl)propyloamino)ethyl) hexanoic acid, and two novel inhibitors OAT-1617 and OAT-1746 (the last three synthesized at OncoArendi Therapeutics) were tested. Normalized values were analyzed using GraphPad Prism 7.0 software and the IC50 values were determined."}, "U87-MG glioma cells": {"test_system": "U87-MG glioma cells", "assay": "Matrigel invasion assay, U87-MG co-cultured with BV2 microglia", "type": "cell-based, human", "procedure": "BV2 cells were plated onto a 24-well plate at the density of 4×10^4. After 24 h, the invasion assay was performed with tissue culture inserts (6.5 mm Transwell® with 8.0 µm Pore Polycarbonate Membrane Insert, Corning, NY, USA) coated with the Growth Factor Reduced Matrigel™ Matrix (BD Biosciences, San Diego. CA, USA). The Matrigel™ Matrix (50 µL of 1 mg/mL stock solution diluted in fresh DMEM) was dried under sterile conditions (37°C) for 5–6 h. The medium in BV2 cultures was replaced with fresh one 1 h before seeding glioblastoma cells onto the inserts, then LN18 and U87 glioblastoma cells were seeded at 2×10^4/insert on Matrigel-covered membranes in a serum-reduced medium (2% FBS). Untreated glioblastoma cells co-cultured with or without BV2 cells served as positive and negative controls, respectively. Cells were treated with the arginase-1 inhibitors OAT-90, OAT-1617 and OAT-1746 solved in PBS. The cultures were kept in incubator at 37°C with humidified air containing 5% CO2. After 18 h cells were fixed in ice-cold methanol and cell nuclei stained with DAPI (4′,6-Diamidino-2-Phenylindole; 1 µg/mL, Sigma). The membranes from Transwell® inserts were cut out and images were acquired using a fluorescence microscope (Leica DM4000B, 10x lens) from the 5 independent fields (bottom; top; left; right side and the middle). Numbers of invading cells were counted using the ImageJ software (NIH, Bethesda, MD, USA). All experiments were performed three times, in duplicates."}},
  "note": "pIC50: −log10 of the molar value. Entries after “also recorded” stand apart in the source; their conditions may differ.",
  "data": [
    {"smiles": "CN(C)C[C@@H]1CC[C@@H](CCB(O)O)C[C@]1(N)C(=O)O", "note": "[OAT-1746]", "values": [
      {"measurement": "arginine concentration in the blood plasma", "setting": "[1]", "result": "increase of arginine concentration"},
      {"measurement": "arginine concentration in the brain", "setting": "[1]", "result": "increase of arginine concentration"},
      {"measurement": "pIC50", "setting": "recombinant human ARG2", "result": 7.31},
      {"measurement": "microglia-induced invasion of U87-MG cells", "setting": "U87-MG glioma cells; 11 µM, co-culture with BV2, 18 h", "result": "effectively reduced glioma invasion; also recorded: reduced microglia-induced invasion of glioma cells more efficiently"},
      {"measurement": "concentration dependence of the inhibitory effect on glioma invasion", "setting": "U87-MG glioma cells; 0.1 and 11 µM, U87-MG with BV2", "result": "concentration-dependent"}
    ]}
  ]
}
